One experiment concerns the target T1, DYRK3 (Homo sapiens, UniProt O43781).
T1 sequence (O43781 1-588): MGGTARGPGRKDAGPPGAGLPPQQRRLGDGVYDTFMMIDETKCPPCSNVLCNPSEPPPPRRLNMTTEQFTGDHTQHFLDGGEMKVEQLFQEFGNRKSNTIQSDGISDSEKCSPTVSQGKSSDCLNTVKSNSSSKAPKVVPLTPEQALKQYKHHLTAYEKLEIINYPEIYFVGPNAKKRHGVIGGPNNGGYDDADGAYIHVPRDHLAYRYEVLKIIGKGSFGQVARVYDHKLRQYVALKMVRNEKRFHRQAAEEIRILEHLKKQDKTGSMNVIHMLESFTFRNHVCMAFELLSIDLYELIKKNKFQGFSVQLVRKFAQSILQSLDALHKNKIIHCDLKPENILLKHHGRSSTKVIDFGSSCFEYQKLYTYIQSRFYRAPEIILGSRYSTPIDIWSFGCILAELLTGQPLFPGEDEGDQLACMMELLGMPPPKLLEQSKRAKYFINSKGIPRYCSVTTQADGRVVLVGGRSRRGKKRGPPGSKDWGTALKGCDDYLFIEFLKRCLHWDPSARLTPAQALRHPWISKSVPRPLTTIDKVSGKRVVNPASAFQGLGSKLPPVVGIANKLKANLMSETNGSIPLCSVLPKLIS
The experiment can be described thus: radiometric protein kinase assay. The class given is biochemical. Conditions: 15 μmol/L ATP; read-out: IC50 DYRK 3.

The test system of experiment [1] is MCF-7 breast carcinoma cells. The experiment can be described thus: crystal violet proliferation assay. The class given is cell-based. Conditions: Homo sapiens, MCF7, 96 h exposure, duplicate. As to the method:
(§1) For experiments with RC-124 cells, microtiter plates had been pretreated in the following way: 30 μL of a sterilized gelatine solution (1.5% (m/V)) were added to each well of flat bottom 96-well plates, the plates were covered with their lids, incubated for 1h at 37°C, the excess solution was removed, the wells were washed with PBS 7.4 pH, and the new cell-culture medium was added.
(§2) The antiproliferative effects were determined according to a routinely used method. In short: a volume of 100 μL of HT-29 cells (2565 cells/mL), MDA-MB-231 cells (4120 cells/mL), MCF-7 cells (4840 cells/mL) or RC-124 cells (1460 cells/mL) was transferred into the wells of 96-well plates (note: for RC-124 pretreated plates were used, see above) and incubated at 37°C/5% CO2 for 72 h (MCF-7, MDA-MB-231, RC-124) or 48 h (HT-29). Stock solutions of 8c in DMSO were prepared and diluted with the respective cell culture medium to graded concentrations (final concentration of […]: 0.1% v/v). […] Results were calculated as the mean values of three independent experiments.

The subject of experiment [2] is MDA-MB-231 breast cancer cells. Nature of the experiment: crystal violet proliferation assay. The class given is cell-based. Conditions: Homo sapiens, 96 h exposure, triplicate. As to the method:
as §1, §2

The test system of experiment [3] is HT-29 colon carcinoma cells. The experiment can be described thus: crystal violet proliferation assay. In kind it is cell-based. Conditions: Homo sapiens, 72 h exposure, triplicate. As to the method:
as §1, §2

Experiment [4] relates to RC-124 healthy human kidney cells. Nature of the experiment: crystal violet proliferation assay. In kind it is cell-based. Conditions: 96 h exposure, triplicate. How it is done: as §1, §2
The next experiment has as its target DYRK1B (Homo sapiens, UniProt Q9Y463). The experiment can be described thus: radiometric protein kinase assay. In kind it is biochemical. Conditions: 15 μmol/L ATP; read-out: IC50 DYRK 1B.
The target of another experiment is CLK1 (Mus musculus, UniProt P22518). Nature of the experiment: radiometric protein kinase assay.
Sequence of CLK1 (P22518 whole entry): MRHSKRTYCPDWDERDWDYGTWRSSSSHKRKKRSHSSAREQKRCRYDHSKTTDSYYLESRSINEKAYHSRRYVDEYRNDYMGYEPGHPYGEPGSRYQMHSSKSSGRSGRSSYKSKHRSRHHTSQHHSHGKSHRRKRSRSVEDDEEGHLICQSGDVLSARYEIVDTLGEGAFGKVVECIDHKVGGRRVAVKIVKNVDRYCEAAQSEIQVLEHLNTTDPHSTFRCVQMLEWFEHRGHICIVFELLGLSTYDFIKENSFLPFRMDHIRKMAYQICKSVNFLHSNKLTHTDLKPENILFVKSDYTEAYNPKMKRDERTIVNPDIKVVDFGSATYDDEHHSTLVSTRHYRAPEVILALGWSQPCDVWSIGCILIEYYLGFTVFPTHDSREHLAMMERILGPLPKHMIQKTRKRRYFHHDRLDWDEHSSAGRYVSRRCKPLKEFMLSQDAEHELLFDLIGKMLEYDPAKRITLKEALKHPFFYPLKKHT
The next experiment addresses CLK2 (Mus musculus, UniProt O35491). The experiment can be described thus: radiometric protein kinase assay.
Another experiment concerns the target T2, CDK5/p25 (Homo sapiens, UniProt Q00535).
T2 construct: made in house
The experiment can be described thus: radiometric protein kinase assay. In kind it is biochemical. Conditions: 15 μmol/L ATP.

A further experiment concerns UACC-257. The experiment can be described thus: NCI cancer cell line screening. The class given is cell-based, human. As to the method: Being the most promising compound in terms of CLK1 inhibitory potency and selectivity, KuWal151 (8c) was tested in the National Cancer Institute cancer cell line screening on 57 tumor cell lines of different tissue origin [45]. With only a few exceptions, KuWal151 inhibited the growth of most cell lines in submicromolar concentrations. In Table 2 the cancer cell line inhibition data is listed with the expression rates of SPF45 and CLK1 as indicated in the Expression Atlas database (https://www.ebi.ac.uk/gxa/home). Apparently the cell lines with high levels of CLK1 encoding RNA are inhibited over average. […] However, the available data are not sufficient to construe a clear relationship between the expression levels of the putative target CLK1 and sensitivity of the cell lines against 8c. The same holds true for SPF45, an important substrate of CLK1 involved in splicing which is found to be overexpressed in many cancer cell lines. […] The lack of a straight relationship between CLK1 and/or SPF45 expression levels on the one hand and sensitivity against the CLK1 inhibitor 8c on the other hand may have various reasons, e.g. different uptake rates of the inhibitor by the cells or alternative intracellular targets. […]

In the next experiment the target is CLK3 (Mus musculus, UniProt O35492). Nature of the experiment: radiometric protein kinase assay.
Sequence of CLK3 (O35492 whole entry): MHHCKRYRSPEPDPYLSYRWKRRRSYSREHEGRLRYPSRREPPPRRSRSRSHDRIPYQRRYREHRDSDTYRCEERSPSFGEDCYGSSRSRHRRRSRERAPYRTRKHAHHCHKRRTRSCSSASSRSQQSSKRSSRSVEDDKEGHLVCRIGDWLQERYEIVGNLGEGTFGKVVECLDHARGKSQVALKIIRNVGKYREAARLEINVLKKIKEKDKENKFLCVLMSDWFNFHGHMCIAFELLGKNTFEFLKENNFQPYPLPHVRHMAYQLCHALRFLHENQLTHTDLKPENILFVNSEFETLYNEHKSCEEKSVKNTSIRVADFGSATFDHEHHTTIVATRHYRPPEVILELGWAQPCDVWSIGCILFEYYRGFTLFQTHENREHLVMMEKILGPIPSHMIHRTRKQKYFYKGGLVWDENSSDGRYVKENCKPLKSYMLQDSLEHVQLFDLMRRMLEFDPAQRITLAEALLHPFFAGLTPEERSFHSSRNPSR

Sequence of CLK2 (O35491 whole entry): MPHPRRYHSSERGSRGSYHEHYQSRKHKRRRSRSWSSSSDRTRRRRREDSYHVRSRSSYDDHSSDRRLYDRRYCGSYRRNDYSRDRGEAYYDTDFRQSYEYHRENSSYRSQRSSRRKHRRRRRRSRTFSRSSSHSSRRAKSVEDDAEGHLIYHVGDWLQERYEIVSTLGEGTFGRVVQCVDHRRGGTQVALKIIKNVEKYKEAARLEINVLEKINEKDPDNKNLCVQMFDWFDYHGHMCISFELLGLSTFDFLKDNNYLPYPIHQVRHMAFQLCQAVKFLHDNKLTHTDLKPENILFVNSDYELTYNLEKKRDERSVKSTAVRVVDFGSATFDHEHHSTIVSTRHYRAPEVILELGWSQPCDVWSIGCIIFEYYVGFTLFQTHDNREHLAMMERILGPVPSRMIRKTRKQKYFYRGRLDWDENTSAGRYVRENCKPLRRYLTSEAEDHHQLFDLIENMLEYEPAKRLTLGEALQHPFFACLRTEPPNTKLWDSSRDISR
Sequence of DYRK1B (Q9Y463 whole entry): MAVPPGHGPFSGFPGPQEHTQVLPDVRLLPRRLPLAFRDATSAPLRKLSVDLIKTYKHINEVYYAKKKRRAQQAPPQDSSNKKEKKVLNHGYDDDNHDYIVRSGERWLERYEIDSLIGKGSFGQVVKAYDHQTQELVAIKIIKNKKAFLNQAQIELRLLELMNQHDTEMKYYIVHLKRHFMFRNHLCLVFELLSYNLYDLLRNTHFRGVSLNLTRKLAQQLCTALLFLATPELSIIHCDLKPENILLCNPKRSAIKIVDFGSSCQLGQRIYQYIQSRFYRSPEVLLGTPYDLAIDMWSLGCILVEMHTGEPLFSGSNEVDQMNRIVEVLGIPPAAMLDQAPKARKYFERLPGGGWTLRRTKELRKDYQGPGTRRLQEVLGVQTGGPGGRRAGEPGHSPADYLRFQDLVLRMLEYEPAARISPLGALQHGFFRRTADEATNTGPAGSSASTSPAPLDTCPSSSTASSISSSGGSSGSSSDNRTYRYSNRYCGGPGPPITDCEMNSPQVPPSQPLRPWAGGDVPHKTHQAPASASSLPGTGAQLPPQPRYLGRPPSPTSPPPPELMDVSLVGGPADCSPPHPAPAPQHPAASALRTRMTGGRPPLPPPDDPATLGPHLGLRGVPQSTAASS
T2 sequence (Q00535 whole entry): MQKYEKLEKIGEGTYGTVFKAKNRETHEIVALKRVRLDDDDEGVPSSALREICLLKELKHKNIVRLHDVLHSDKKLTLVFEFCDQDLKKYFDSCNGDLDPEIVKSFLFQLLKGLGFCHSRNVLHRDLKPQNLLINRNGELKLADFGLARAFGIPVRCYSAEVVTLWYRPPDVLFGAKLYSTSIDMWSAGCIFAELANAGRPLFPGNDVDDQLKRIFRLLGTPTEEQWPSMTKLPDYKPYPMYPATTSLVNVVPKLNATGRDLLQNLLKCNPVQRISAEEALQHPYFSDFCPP
T2 sequence (Q15078 99-307 partner limits assumed): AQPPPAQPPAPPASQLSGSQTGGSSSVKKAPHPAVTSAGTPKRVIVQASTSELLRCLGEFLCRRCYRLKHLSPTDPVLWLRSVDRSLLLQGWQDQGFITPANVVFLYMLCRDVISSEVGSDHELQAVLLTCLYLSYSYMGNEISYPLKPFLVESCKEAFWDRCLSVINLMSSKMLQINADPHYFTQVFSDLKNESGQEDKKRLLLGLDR
Description for CLK1: Buffer A: 10 mM MgCl2, 1 mM EGTA, 1 mM DTT, 25 mM Tris-HCl pH 7.5, 50 μg heparin/mL. Buffer C: 60 mM β-glycerophosphate, 15 mM p-nitrophenylphosphate, 25 mM MOPS (pH 7.2), 15 mM EGTA, 15 mM MgCl2, 1 mM DTT, 1 mM sodium vanadate, 1 mM phenylphosphate.
Controls were performed with appropriate dilutions of DMSO. The GS-1, CKS, CDK7/9 tide and RS peptide substrates were obtained from Proteogenix (Oberhausbergen, France).
CDK1/cyclin B (M phase starfish oocytes, native), CDK2/cyclin A and CDK5/p25 (human, recombinant) were prepared as previously described [33]. […] ATP (3,000 Ci/mmol; 10 mCi/mL) in a final volume of 30 μL. After 30 min incubation at 30°C, the reaction was stopped by harvesting onto P81 phosphocellulose supernatant (Whatman) using a FilterMate harvester (Packard) and washing in 1% phosphoric acid. Scintillation fluid was added and the radioactivity measured in a Packard counter.
(§3) All data points for construction of dose response curves were recorded in triplicate.
Description for CLK2: Buffers. Buffer A: 10 mM MgCl2, 1 mM EGTA, 1 mM DTT, 25 mM Tris-HCl pH 7.5, 50 μg heparin/mL. Buffer C: 60 mM β-glycerophosphate, 15 mM p-nitrophenylphosphate, 25 mM MOPS (pH 7.2), 15 mM EGTA, 15 mM MgCl2, 1 mM DTT, 1 mM sodium vanadate, 1 mM phenylphosphate.
Kinase activities were assayed in buffer A or C at 30°C at a final ATP concentration of 15 μmol/L. Blank values were subtracted and activities were expressed in percent of the maximal activity, i.e. in the absence of inhibitors. Controls were performed with appropriate dilutions of DMSO.
Their kinase activity was assayed in buffer A, with 1 mg histone H1/mL, in the presence of 15 μmol/L [γ-33P] ATP (3,000 Ci/mmol; 10 mCi/mL) in a final volume of 30 μL. After 30 min incubation at 30°C, the reaction was stopped by harvesting onto P81 phosphocellulose supernatant (Whatman) using a FilterMate harvester (Packard) and washing in 1% phosphoric acid. Scintillation fluid was added and the radioactivity measured in a Packard counter.
as §3

In the case of `O=C1NCc2ccc3c(-c4cccc(Cl)c4)c[nH]c3c21` [8c, 3-(3-Chlorophenyl)-6,7-dihydropyrrolo[3,4-g]indol-8(1H)-one], the IC50 on DYRK3 was over 10000 nM; on DYRK1B it was over 10000 nM; against CLK1 it was 88 nM; against CLK2, 510 nM; on CDK5/p25, over 10000 nM; against CLK3 it was over 10000 nM. Besides, the GI50 in [1] is 350 ± 160 nM; in experiment [2] it was 280 ± 50 nM; in [3], 120 ± 10 nM; in experiment [4], 440 ± 100 nM; with UACC-257 (Homo sapiens, UACC-257, UACC-257, Melanoma), over 50000 nM; in the experiment on UACC-257 (UACC-257, Melanoma), over 50100 nM.

The values above are taken from paper PMC5933782, “Molecular structures of cdc2-like kinases in complex with a new inhibitor chemotype” (PLoS ONE, 2018).
